In US20220213052A1, “INHIBITORS OF RNA-BINDING PROTEINS, COMPOSITIONS THEREOF, AND THERAPEUTIC USES THEROF” (The University of North Carolina at Chapel Hill, priority 2019, published 2022):
Like-named read-outs stand apart in the source and are kept apart here.

How the values were obtained:
[1] = target: T1, RNA-binding protein Lin-28 homolog B (LIN28B) (Homo sapiens, UniProt Q6ZN17); test: LIN28B FP assay
T1 sequence (Q6ZN17 1-250): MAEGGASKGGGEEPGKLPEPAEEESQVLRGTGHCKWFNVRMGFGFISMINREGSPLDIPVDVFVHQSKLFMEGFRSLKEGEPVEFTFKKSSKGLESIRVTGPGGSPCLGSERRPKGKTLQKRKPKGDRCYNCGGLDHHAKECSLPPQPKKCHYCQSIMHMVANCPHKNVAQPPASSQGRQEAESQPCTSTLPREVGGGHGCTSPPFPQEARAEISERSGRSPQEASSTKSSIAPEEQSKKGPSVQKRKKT
Experimental: (§1) With the FP assay of HuR-Msi1ARE binding, the inhibition of the HuR-Msi1ARE interaction by various compounds of the present technology was assessed. Similar FP assays for Musashi 2 (Msi2) and for RNA-binding protein Lin-28 homolog B (LIN28B) were also performed on various compounds of the present technology. The results of such assays for HuR are provided in Table 1 alongside the compound structures as well as ID numbers for ease of reference; the results of such assays for Msi1, Msi2, and LIN28B are provided in Table 2.

[2] = test system: colon cancer cell line HCT116; test: Cytotoxicity assay (WST-8), HCT116; assay type: cell-based; conditions: Homo sapiens, HCT-116, 96 h incubation
Experimental: (§2) The cytotoxicity of various compounds of the present technology in several cancer cell lines (pancreatic cancer cell line MIAPaCa-2, triple-negative breast cancer cell line MDA-MB-231, and colon cancer cell lines HCT116, HCT116 β/W, and RKO) was assessed by a cytotoxicity assay. Cells were seeded in 96-well culture plates (3,000-5,000 cells/well) and treated with titrated compounds in triplicate. After 96 h incubation, cell growth medium was removed and proliferation reagent WST-8 (Sigma) was added to each well and incubated at 37° C. for 1-3 h. Absorbance was then measured with a plate reader at 450 nm with correction at 650 nm. The results were expressed as the percentage of absorbance of treated wells versus that of vehicle control. IC50, the drug concentration causing 50% growth inhibition, was calculated via sigmoid curve fitting using GraphPad Prism 5.0. The results for those compounds tested against MIAPaCa-2 and MDA-MB-231 are provided in Table 1; the results for those compounds tested against colon cancer cell lines HCT116, HCT116 β/W, and RKO are provided in Table 3.

[3] = target: T2, full-length human HuR protein (Homo sapiens, UniProt Q15717); test: FP assay of HuR-Msi1 ARE binding inhibition; conditions: HuR-Msi1 ARE interaction; read-out: HuR Ki via FP assay
T2 construct: full-length human HuR protein was produced by the KU COBRE-PSF Protein Purification Group; made in house
T2 sequence (Q15717 whole entry): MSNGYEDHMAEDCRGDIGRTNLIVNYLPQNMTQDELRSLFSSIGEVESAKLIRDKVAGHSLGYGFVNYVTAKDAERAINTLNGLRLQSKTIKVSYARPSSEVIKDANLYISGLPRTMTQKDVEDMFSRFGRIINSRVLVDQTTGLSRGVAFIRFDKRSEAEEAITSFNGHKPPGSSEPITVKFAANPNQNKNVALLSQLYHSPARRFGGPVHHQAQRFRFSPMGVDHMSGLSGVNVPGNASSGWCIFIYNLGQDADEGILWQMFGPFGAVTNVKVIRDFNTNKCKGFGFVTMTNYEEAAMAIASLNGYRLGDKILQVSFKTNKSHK
Excerpt: A fluorescence polarization (FP)-based binding assay was utilized to assess the inhibition of HuR protein interaction with the ARE site of Msi1 mRNA (“HuR-Msi1^ARE”) by compounds of interest. Briefly, full-length human HuR protein was produced by the KU COBRE-PSF Protein Purification Group and Bcl2, Msi1 and XIAP mRNA sequences (16 nt) were designed based on literature precedent^23,24,31,32. Fluorescein labeled RNAs were purchased from Dharmacon with the following sequences: Msi1 RNA: 5′-[…]-3′-fluorescein; Bcl-2 RNA: 5′-[…]-3′-fluorescein; XIAP RNA: 5′-[…] UGUC-3′-fluorescein, and a 16-nt degenerative RNA with 3′-fluorescein label was used as a negative control.
as §1

Musashi 2 (Msi2) = Musashi 2 (Msi2) (Homo sapiens, UniProt Q96DH6); test: Msi2 FP assay; assay type: binding
Musashi 2 (Msi2), sequence (Q96DH6 whole entry, species assumed): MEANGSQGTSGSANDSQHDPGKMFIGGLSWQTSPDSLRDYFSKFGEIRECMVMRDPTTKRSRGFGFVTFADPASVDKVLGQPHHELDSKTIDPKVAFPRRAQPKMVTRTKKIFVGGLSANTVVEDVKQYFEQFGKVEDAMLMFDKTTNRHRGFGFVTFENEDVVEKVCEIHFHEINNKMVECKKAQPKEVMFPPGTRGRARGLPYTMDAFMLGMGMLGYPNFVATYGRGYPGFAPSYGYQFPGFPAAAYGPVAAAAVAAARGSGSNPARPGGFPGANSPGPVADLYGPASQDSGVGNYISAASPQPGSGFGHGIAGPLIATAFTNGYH
Experimental: as §1

[4] = test system: colon cancer cell line HCT116 β/W; test: Cytotoxicity assay (WST-8), HCT116 β/W; assay type: cell-based; conditions: Homo sapiens, HCT-116, 96 h incubation
Experimental: as §2

[5] = test system: colon cancer cell line RKO; test: Cytotoxicity assay (WST-8), RKO; assay type: cell-based; conditions: 96 h incubation
Experimental: as §2

[6] = test system: colon cancer cell line SW480; test: Cytotoxicity assay (WST-8), SW480; assay type: cell-based; conditions: Homo sapiens, 96 h incubation
Msi1 = Msi1 (Homo sapiens, UniProt O43347); test: Msi1 FP assay; assay type: binding
Msi1, sequence (O43347 whole entry, species assumed): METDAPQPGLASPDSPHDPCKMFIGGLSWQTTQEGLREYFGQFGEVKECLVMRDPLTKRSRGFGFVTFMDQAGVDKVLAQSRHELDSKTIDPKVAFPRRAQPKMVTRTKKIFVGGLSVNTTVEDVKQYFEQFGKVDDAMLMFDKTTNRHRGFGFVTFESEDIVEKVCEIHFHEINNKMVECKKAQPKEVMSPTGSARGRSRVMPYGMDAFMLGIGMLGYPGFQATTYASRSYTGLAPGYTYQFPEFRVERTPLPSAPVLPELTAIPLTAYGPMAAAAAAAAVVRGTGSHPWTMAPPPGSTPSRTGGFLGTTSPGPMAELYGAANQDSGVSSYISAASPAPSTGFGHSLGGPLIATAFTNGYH
Experimental: as §1

[7] = test system: triple-negative breast cancer cell line MDA-MB-231; test: Cytotoxicity assay (WST-8), MDA-MB-231; assay type: cell-based; conditions: Homo sapiens, 96 h incubation
Experimental: as §2

[8] = test system: pancreatic cancer cell line MIAPaCa-2; test: Cytotoxicity assay (WST-8), MIAPaCa-2; assay type: cell-based; conditions: Homo sapiens, MIA PaCa-2, 96 h incubation
Experimental: as §2

[9] = cell marked (RRM1), read-out: Msi2 (Ki) (RRM1)
[10] = cell without (RRM1) mark, read-out: Msi2 (Ki)

SMILES | Ki [1] [µM] | IC50 [2] [µM] | Ki [3] [µM] | Ki (Musashi 2 (Msi2); [9]) [µM] | IC50 [4] [µM] | IC50 [5] [µM] | IC50 [6] [µM] | Ki (Msi1) [µM] | IC50 [7] [µM] | Ki (Musashi 2 (Msi2); [10]) [µM] | IC50 [8] [µM]
CN(C)c1ccc(C(=O)Nc2ccc3sc(/C=C/C(=O)O)cc3c2)cc1 [KH-36A, (E)-3-(5-(4-(Dimethylamino)benzamido)benzo[b]thiophen-2-yl)acrylic acid] | 1.64 | 98.5 | 0.12 | 0.5 | 99.9 | 62.9 | > 100 | 0.22 | > 100 | – | –
CN(C)c1ccc(C(=O)Nc2ccc3sc(/C=C/C(=O)NO)cc3c2)cc1 [KH-36, (E)-4-(dimethylamino)-N-(2-(3-(hydroxyamino)-3-oxoprop-1-en-1-yl)benzo[b]thiophen-5-yl)benzamide] | 7.1 | 5.05 | 0.55 | 1.5 | 4 | 5.74 | 4.89 | – | 4.02 | – | –
CC(C)(C)c1cccc(C(=O)Nc2ccc3sc(CCC(=O)NN)cc3c2)c1 [KH-30E] | > 20 | – | 4.19 | – | – | – | – | > 20 | 22.7 | > 20 | –
O=C(CCc1cc2cc(NC(=O)c3ccc(S(F)(F)(F)(F)F)cc3)ccc2s1)NO [KH-34, N-(2-(3-(Hydroxyamino)-3-oxopropyl)benzo[b]thiophen-5-yl)-4-(pentafluoro-X^6-sulfanyl)benzamide] | > 20 | – | 1.53 | – | – | – | – | > 20 | 3.97 | > 20 | –
CC(C)c1ccc(C(=O)Nc2ccc3sc(CCC(=O)NN)cc3c2)cc1 [KH-37E] | > 20 | – | 5.18 | – | – | – | – | > 20 | > 100 | > 20 | –
CC(C)(C)c1ccc(C(=O)Nc2ccc3sc(/C=C/C(=O)NN)cc3c2)cc1 [KH-19E, (E)-4-(tert-butyl)-N-(2-(3-hydrazinyl-3-oxoprop-1-en-1-yl)benzo[b]thiophen-5-yl)benzamide] | > 20 | – | 0.19 | – | – | – | – | > 20 | 28.4 | > 20 | –
CC(C)(C)c1ccc(C(=O)Nc2ccc3sc(CCC(N)=O)cc3c2)cc1 [KH-22C, N-(2-(3-amino-3-oxopropyl)benzo[b]thiophen-5-yl)-4-(tert-butyl)benzamide] | > 20 | – | 7 | – | – | – | – | > 20 | 2.87 | > 20 | –
CC(C)(C)C(=O)Nc1ccc2sc(/C=C/C(=O)O)cc2c1 [KH-20A, (E)-3-(5-pivalamidobenzo[b]thiophen-2-yl)acrylic acid] | > 20 | – | > 20 | – | – | – | – | > 20 | – | > 20 | > 100
CC(C)(C)c1ccc(C(=O)Nc2ccc3[nH]c(C(=O)O)cc3c2)cc1 [KH-39A, 5-(4-(tert-butyl)benzamido)-1H-indole-2-carboxylic acid] | > 20 | – | 12.5 | 22 | – | – | – | > 20 | > 100 | – | –
CC(C)(C)c1cccc(C(=O)Nc2ccc3sc(CCC(=O)NO)cc3c2)c1 [KH-30, 3-(tert-Butyl)-N-(2-(3-(hydroxyamino)-3-oxopropyl)benzo[b]thiophen-5-yl)benzamide] | > 20 | – | 4.98 | – | – | – | – | > 20 | 5.51 | > 20 | –
CC(C)(C)c1ccc(C(=O)Nc2ccc3sc(/C=C/C(N)=O)cc3c2)cc1 [KH-19C, (E)-N-(2-(3-amino-3-oxoprop-1-en-1-yl)benzo[b]thiophen-5-yl)-4-(tert-butyl)benzamide] | > 20 | – | 0.6 | – | – | – | – | > 20 | 8.68 | 4.83 | –
